Measured values from patent US20210338672A1, “USE OF AN INHIBITOR OF AN ENT FAMILY TRANSPORTER IN THE TREATMENT OF CANCER AND COMBINATION THEREOF WITH AN ADENOSINE RECEPTOR ANTAGONIST” (iTeos Belgium SA, priority 2018, published 2021).
Structures can show the parent of a compound that is named as a salt.

Experiments:
[1] = system: Human primary CD3+ T cells; conditions: 25 μM adenosine or 200 μM ATP, 3 days; for T cell cytokine secretion (IL-2), effect of adenosine or ATP: anti-CD3/CD28-stimulated CD3+ T cells; for Restoration of adenosine- and ATP-mediated suppression of IL-2 secretion: single agent, Compound 8a at 300 nM
Description: CD3+ T cells were stimulated with antiCD3/antiCD28-coated microbeads, and treated with 25 μM adenosine (FIG. 4A) or 200 μM ATP (FIG. 4B). IL-2 secretion in the supernatant was analysed by AlphaLISA after a 3 days incubation period. […] Representative data for 1 healthy donor are shown.
(§1) PBMC and CD3+ T cell isolation. Venous blood from healthy volunteers, all of whom signed an informed consent approved by the Ethics Committee (FOR-UIC-BV-050-01-01 ICF_HBS_HD Version 5.0), was obtained via Unité d'Investigation Clinique (Centre Hospitalier Universitaire de Tivoli, La Louviere, Belgium). Mononuclear cells were collected by density gradient centrifugation, using SepMate-50 tubes and Lymphoprep according to the manufacturer's instructions. CD3+ T cells were isolated by immunomagnetic negative selection, using the EasySep Human T Cell Isolation Kit as per manufacturer's instructions. CD3+ T cells were stored in heat inactivated FBS and 10% DMSO in liquid nitrogen.
(§2) Human primary T cell culture. Human purified CD3+ T cells were thawed and washed twice with RPMI1640 medium, UltraGlutamine, supplemented with 1× non-essential amino acids (Lonza), and 1 mM Sodium Pyruvate (Gibco) (complete media), containing 10% hiFBS. After the final wash, cells were resuspended in PBS containing 10% FBS, and labeled using 3 μM CFSE during 5 min at room temperature, followed by two wash steps in complete media. After the last wash, cells were suspended at 1.6×10^6 cells/mL in X-Vivol5 medium. 50 μL of cell suspension (8×10^4 T cells) was added to wells of sterile round-bottom 96-well plates. Cells were activated by adding 50 μL of anti-CD3 anti-CD28 coated microbeads (Dynabeads human T-activator CD3/CD28), suspended in X-Vivo15 medium, at a ratio of one microbead per two cells. […] The final concentration of DMSO in the assay was 0.05%, and the final assay volume was 200 μL. Experiments were performed in biological duplicate, and DMSO control was added in quadruplicate. The cells were placed in a 37° C. humidified tissue culture incubator with 5% CO2 for 72 hours. After 72 hours, the cells were pelleted by centrifugation at 1600 rpm for 5 minutes, and supernatants were transferred to V-bottom 96-well plates for cytokine quantification. Cell pellets were resuspended in FACS buffer (see below) for flow cytometry analysis.
Cytokine quantification. Supernatants were centrifuged at 4000 rpm for 10 minutes, and IL-2 was quantified using the IL-2 (human) AlphaLISA Biotin-Free Detection Kit, and TNFα was quantified using the AlphaLISA Human TNFα Biotin-Free Detection Kit, according to the manufacturer's instructions.

[2] = system: Human primary CD3+ T cells; experiment: Proliferation of CD4+ and CD8+ T cells (CFSE dilution, flow cytometry); conditions: 3 days; for T cell proliferation, effect of adenosine or ATP: anti-CD3/CD28-stimulated CD3+ T cells; for T cell proliferation, effect of adenosine or ATP / Restoration of adenosine- and ATP-mediated suppression of T cell proliferation: 25 μM adenosine or 200 μM ATP; for Restoration of adenosine- and ATP-mediated suppression of T cell proliferation: single agent, Compound 8a at 300 nM
Description: Human primary CD3+ T cells were stimulated with antiCD3/antiCD28-coated microbeads, and treated with 25 μM adenosine (FIGS. 3A and 3C) or 200 μM ATP (FIGS. 3B and 3D). Proliferation of CD4+(FIGS. 3A and 3B) and CD8+(FIGS. 3C and 3D) T cells was analysed by flow cytometry after a 3 days incubation period.
(§3) Human primary CD3+ T cells were stimulated with antiCD3/antiCD28-coated microbeads, and treated with 100 μM ATP or control medium. Viability of CD3+ T cells (FIG. 5A) and proliferation of CD8+ T cells (FIG. 5B) were analysed by flow cytometry after a 3 days incubation period.
as §1
Human primary T cell culture. Human purified CD3+ T cells were thawed and washed twice with RPMI1640 medium, UltraGlutamine, supplemented with 1× non-essential amino acids (Lonza), and 1 mM Sodium Pyruvate (Gibco) (complete media), containing 10% hiFBS. After the final wash, cells were resuspended in PBS containing 10% FBS, and labeled using 3 μM CFSE during 5 min at room temperature, followed by two wash steps in complete media. After the last wash, cells were suspended at 1.6×10^6 cells/mL in X-Vivol5 medium. 50 μL of cell suspension (8×10^4 T cells) was added to wells of sterile round-bottom 96-well plates. Cells were activated by adding 50 μL of anti-CD3 anti-CD28 coated microbeads (Dynabeads human T-activator CD3/CD28), suspended in X-Vivo15 medium, at a ratio of one microbead per two cells. […] The final concentration of DMSO in the assay was 0.05%, and the final assay volume was 200 μL. Experiments were performed in biological duplicate, and DMSO control was added in quadruplicate. The cells were placed in a 37° C. humidified tissue culture incubator with 5% CO2 for 72 hours. […] Cell pellets were resuspended in FACS buffer (see below) for flow cytometry analysis.
(§4) Flow cytometry. Cells were washed with FACS buffer (PBS containing 2 mM EDTA and 0.1% BSA) and stained with surface marker antibodies and viability dye for 20 min on ice. Cells were washed twice with FACS buffer and data acquired using an LSRFortessa (BD biosciences). Analysis was performed using FlowJo software (Treestar).

[3] = system: Human primary CD3+ T cells; experiment: Viability of stimulated human primary CD3+ T cells (flow cytometry, fixable viability dye); conditions: 3 days; for T cell viability, effect of adenosine or ATP: anti-CD3/CD28-stimulated CD3+ T cells; for T cell viability, effect of adenosine or ATP / Restoration of adenosine- and ATP-mediated suppression of T cell viability: 25 μM adenosine or 200 μM ATP; for Restoration of adenosine- and ATP-mediated suppression of T cell viability: single agent, Compound 8a at 300 nM
Description: Human primary CD3+ T cells were stimulated with antiCD3/antiCD28-coated microbeads, and treated with 25 μM adenosine (FIG. 2A) or 200 μM ATP (FIG. 2B). T cell viability was analysed by flow cytometry after a 3 days incubation period.
as §3
PBMC and CD3+ T cell isolation. […] Mononuclear cells were collected by density gradient centrifugation, using SepMate-50 tubes and Lymphoprep according to the manufacturer's instructions. CD3+ T cells were isolated by immunomagnetic negative selection, using the EasySep Human T Cell Isolation Kit as per manufacturer's instructions. CD3+ T cells were stored in heat inactivated FBS and 10% DMSO in liquid nitrogen.
as §2, §4

[4] = system: Human primary CD3+ T cells; experiment: TNFα secretion by CD3+ T cells (AlphaLISA); conditions: 100 μM ATP; for Reversal of inhibition of T cells in the presence of ATP, A2A receptor antagonist in combination with dipyridamole: FIG. 5A-C (viability, CD8+ proliferation, TNFα), with dipyridamole 1 μM, Compound 8a 300 nM, NIR178 5 μM, CPI-444 5 μM, AZD4635 1 μM, AB928 1 μM
Description: Human primary CD3+ T cells were stimulated with antiCD3/antiCD28-coated microbeads, and treated with 100 μM ATP or control medium. Viability of CD3+ T cells (FIG. 5A) and proliferation of CD8+ T cells (FIG. 5B) were analysed by flow cytometry after a 3 days incubation period. TNFα secretion in the supernatant was analysed by AlphaLISA. Grey shaded bars show A2AR antagonist treated wells, whilst clear bars denote concentration-matched DMSO treated wells. […] Data shown are representative of data obtained in three healthy individuals in 4 independent experiments.
Venous blood from healthy volunteers, all of whom signed an informed consent approved by the Ethics Committee (FOR-UIC-BV-050-01-01 ICF_HBS_HD Version 5.0), was obtained via Unité d'Investigation Clinique (Centre Hospitalier Universitaire de Tivoli, La Louviere, Belgium). Mononuclear cells were collected by density gradient centrifugation, using SepMate-50 tubes and Lymphoprep according to the manufacturer's instructions. CD3+ T cells were isolated by immunomagnetic negative selection, using the EasySep Human T Cell Isolation Kit as per manufacturer's instructions. CD3+ T cells were stored in heat inactivated FBS and 10% DMSO in liquid nitrogen.
Human purified CD3+ T cells were thawed and washed twice with RPMI1640 medium, UltraGlutamine, supplemented with 1× non-essential amino acids (Lonza), and 1 mM Sodium Pyruvate (Gibco) (complete media), containing 10% hiFBS. After the final wash, cells were resuspended in PBS containing 10% FBS, and labeled using 3 μM CFSE during 5 min at room temperature, followed by two wash steps in complete media. After the last wash, cells were suspended at 1.6×10^6 cells/mL in X-Vivol5 medium. 50 μL of cell suspension (8×10^4 T cells) was added to wells of sterile round-bottom 96-well plates. Cells were activated by adding 50 μL of anti-CD3 anti-CD28 coated microbeads (Dynabeads human T-activator CD3/CD28), suspended in X-Vivo15 medium, at a ratio of one microbead per two cells. […] The final concentration of DMSO in the assay was 0.05%, and the final assay volume was 200 μL. Experiments were performed in biological duplicate, and DMSO control was added in quadruplicate. The cells were placed in a 37° C. humidified tissue culture incubator with 5% CO2 for 72 hours. After 72 hours, the cells were pelleted by centrifugation at 1600 rpm for 5 minutes, and supernatants were transferred to V-bottom 96-well plates for cytokine quantification. Cell pellets were resuspended in FACS buffer (see below) for flow cytometry analysis.
Supernatants were centrifuged at 4000 rpm for 10 minutes, and IL-2 was quantified using the IL-2 (human) AlphaLISA Biotin-Free Detection Kit, and TNFα was quantified using the AlphaLISA Human TNFα Biotin-Free Detection Kit, according to the manufacturer's instructions.

[5] = system: LPS induced TNFalpha production; experiment: In vivo LPS induced TNFalpha production in mouse (serum ELISA); conditions: BALB/c mice; 20 mg/kg p.o. 1 h before LPS; p=0.008
Description: BALB/c mice were pretreated for 1 h before LPS (1 mg/kg I.V) injection with NBMPR (20 mg/kg p.o.) or vehicle. […] One hour after LPS treatment, blood serum was collected from the mice. TNFalpha levels were determined by ELISA (n=5).
After 30 minutes, mice were treated with NBMPR p.o. at 20 mg/kg. 60 minutes later, mice were treated with LPS and blood was drawn for TNFalpha measurement in the serum, by ELISA.

MCA205 tumor = experiment: Mouse syngeneic MCA205 fibrosarcoma tumor model; type: in vivo; conditions: C57BL/6 mice; 20 mg/kg p.o. BID for 22 days; p=0.0043
From the text: FIG. 7A is a graph representing the median tumor volume over time after subcutaneous inoculation of tumor cells.
MCA205 tumor cells were inoculated subcutaneously into the right flank of C57BL/6 mice. When tumors reached an average size of about […], mice were randomly allocated into groups.

SMILES	Reversal of inhibition of T cells in the presence of ATP, A2A receptor antagonist in combination with dipyridamole [4]	Restoration of adenosine- and ATP-mediated suppression of IL-2 secretion [1]	Restoration of adenosine- and ATP-mediated suppression of T cell proliferation [2]	Restoration of adenosine- and ATP-mediated suppression of T cell viability [3]	also measured
Nc1ncnc2c1ncn2[C@@H]1O[C@H](CO)[C@@H](O)[C@H]1O [Adenosine]					T cell cytokine secretion (IL-2), effect of adenosine or ATP [1]: profoundly suppressed; T cell proliferation, effect of adenosine or ATP [2]: profoundly suppressed; T cell viability, effect of adenosine or ATP [3]: strongly reduced
Cc1cc(-c2nnc(N)nc2-c2ccc(F)cc2)cc(Cl)n1 [AZD4635, 6-(2-chloro-6-methylpyridin-4-yl)-5-(4-fluorophenyl)-1,2,4-triazin-3-amine]	reversed				
COc1cc(C(=O)OCCCN2CCCN(CCCOC(=O)c3cc(OC)c(OC)c(OC)c3)CC2)cc(OC)c1OC [dilazep hydrochloride]		none of the ENT inhibitors rescued	restored	restored	
OCCN(CCO)c1nc(N2CCCCC2)c2nc(N(CCO)CCO)nc(N3CCCCC3)c2n1 [dipyridamole]		none of the ENT inhibitors rescued	restored	restored	Reversal of ATP inhibition of CD8+ T cell proliferation ([2]; 100 μM ATP, dipyridamole 1 μM): completely reversed; Reversal of ATP-reduced T cell viability ([3]; 100 μM ATP, dipyridamole 1 μM): completely reversed
O=[N+]([O-])c1ccc(CSc2ncnc3c2ncn3[C@@H]2O[C@H](CO)[C@@H](O)[C@H]2O)cc1 [NBMPR, 6-S-[(4-Nitrophenyl)methyl]-6-thioinosine]					Suppression of TNFalpha production after LPS, NBMPR on its own [5]: ~2 fold; Tumor growth compared to Vehicle, NBMPR single agent (MCA205 tumor): significant delay in tumor growth
Cc1ccc(-c2nc(N)nc3c2nnn3Cc2cccc(CO[C@H]3CCOC3)n2)o1 [CPI-444, (S)-7-(5-methylfuran-2-yl)-3-((6-(([tetrahydrofuran-3-yl]oxy)methyl)pyridin-2-yl)methyl)-3H-[1,2,3]triazolo[4,5-d]pyrimidin-5-amine]	reversed				
CCCSc1nc(N[C@@H]2C[C@H]2c2ccc(F)c(F)c2)c2nnn([C@@H]3C[C@H](OCCO)[C@@H](O)[C@H]3O)c2n1 [ticagrelor]		none of the ENT inhibitors rescued	restored	restored	
Nc1ncnc2c1ncn2[C@@H]1O[C@H](COP(=O)([O-])OP(=O)([O-])OP(=O)(O)O)[C@@H](O)[C@H]1O.O.[Na+].[Na+] [ATP, Adenosine 5′-triphosphate disodium salt hydrate]					T cell cytokine secretion (IL-2), effect of adenosine or ATP [1]: profoundly suppressed; Production of TNFα, effect of ATP ([4]; 3 days): significantly inhibited; CD8+ T cell proliferation, effect of ATP ([2]; 100 μM ATP): significantly inhibited; T cell proliferation, effect of adenosine or ATP [2]: profoundly suppressed; T cell viability, effect of ATP ([3]; 100 μM ATP): reduced; T cell viability, effect of adenosine or ATP [3]: strongly reduced
Nc1nc(-n2cccn2)nc(-n2cccn2)c1Br [NIR178, 5-bromo-2,6-di-(1H-pyrazol-1-yl)pyrimidin-4-amine]	reversed				
Cc1c(C#N)cccc1-c1cc(-c2cn(Cc3cccc(C(C)(C)O)n3)nn2)nc(N)n1 [AB928, 3-(2-amino-6-(1-((6-(2-hydroxypropan-2-yl)pyridin-2-yl)methyl)-1H-1,2,3-triazol-4-yl)pyrimidin-4-yl)-2-methylbenzonitrile]	reversed				
